Assay [1] has as its target T1, mitochondrial pyruvate carrier MPC (Mus musculus, UniProt P63030+Q9D023).
T1 construct: gene Mpc1; native carrier in intact cultured cortical astrocytes; read out as mitochondrial pyruvate uptake with mito-PyronicSF; subunit composition not determined
T1 sequence (P63030 2-109): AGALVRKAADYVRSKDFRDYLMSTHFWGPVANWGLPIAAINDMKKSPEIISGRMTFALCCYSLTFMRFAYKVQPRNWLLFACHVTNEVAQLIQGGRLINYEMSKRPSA
T1 sequence (Q9D023 1-127): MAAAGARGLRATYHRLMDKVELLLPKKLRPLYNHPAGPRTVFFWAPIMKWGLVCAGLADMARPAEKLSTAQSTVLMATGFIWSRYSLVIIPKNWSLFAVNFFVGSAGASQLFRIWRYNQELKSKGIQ
The assay is described as follows: mitochondrial pyruvate uptake in intact astrocytes, mito-PyronicSF fluorescence. The assay is classed as cell-based. To be noted: 3 mM extracellular pyruvate; KRH buffer pH 7.4; 22–25°C.

Assay [2] has as its target T1, mitochondrial pyruvate carrier MPC. The assay is described as above. To be noted: 3 mM extracellular pyruvate; KRH buffer pH 7.4; 22–25°C. The assay is classed as cell-based. This is another data set of the same source.

Regarding `N#C/C(=C\c1cn(-c2ccccc2)c2ccccc12)C(=O)O` [UK-5099], the “% uptake inhibition at 10 μM” value in assay [1] amounted to 69%.
For the compound `CN(CCOc1ccc(CC2SC(=O)NC2=O)cc1)c1ccccn1` (centres unmarked) [rosiglitazone], the “% uptake inhibition at 30 μM” value in assay [2] was found to be 67%.

The values above are taken from PMC7077990 (eLife, 2020).
